Holding throughout (experiment): growth of human tumour cells (NCI), 48 h
The subject of assay [1] is CAKI-1 renal.
The test system of assay [2] is DU-145 prostate.
Assay [3] deals with NCI-H23 lung.
For assay [4], the system named is NCI-H522 lung.
The subject of assay [5] is OVCAR-4 ovarian.
The subject of assay [6] is PC-3 prostate.
The subject of assay [7] is RPMI-8226 leukemia.
In assay [8] the test system is UO-31 renal.

Structures are written as SMILES.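 Following 48 hours of exposure in 96-well plates, responses at five concentrations were used to interpolate endpoints linearly. GI50 = concentration required for 50% inhibition of growth. Definition used: TGI = concentration required for complete inhibition of growth.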

`Cc1[nH]nc2c1N=C(c1ccccc1Cl)c1cc([N+](=O)[O-])ccc1N2`: the GI50 is 2.12 µM in assay [1]; 0.891 µM in assay [2]; 5.06 µM in assay [3]; 0.139 µM in assay [4]; 5.15 µM in assay [5]; 0.233 µM in assay [6]. The GI50 is 0.97 µM in assay [7] and 4.94 µM in assay [8]. In addition, the TGI in assay [1] was greater than 22.2 µM; in assay [2], greater than 25 µM; in assay [3] it was greater than 25 µM; in assay [4] it was greater than 25 µM; in assay [5], greater than 25 µM; in assay [6], greater than 25 µM. The TGI in assay [7] and in assay [8] was greater than 25 µM throughout.
Regarding `NC1=Nc2cc(OCCCN3Cc4ccccc4C3)c(OCC3CC3)cc2C12CCCC2`, the GI50 in assay [1] is 2.31 µM; in assay [2], 4.44 µM; in assay [3], 3.61 µM; in assay [4] it was 2.25 µM; in assay [5] it was 3.55 µM; in assay [6], 2.66 µM. Also, the figures for the GI50 in assay [7] and in assay [8] were 1.75 µM and 1.49 µM, respectively. Moreover, the TGI in assay [1] amounted to 11.3 µM; in assay [2] it was 16.2 µM; in assay [3], 12.9 µM; in assay [4], 4.87 µM; in assay [5], 16.6 µM; in assay [6] it was 12.7 µM. Moreover, the TGI was found to be 4.51 µM in assay [7] and 3.14 µM in assay [8].
With `Cc1ccc(Sc2sc(-c3ccccc3)nc2[P+](c2ccccc2)(c2ccccc2)c2ccccc2)cc1`, the GI50 in assay [1] is 0.329 µM; in assay [2], 0.379 µM; in assay [3], 0.27 µM; in assay [4], 0.306 µM; in assay [5] it was 0.305 µM; in assay [6], 0.283 µM. The GI50 in assay [7] is 0.178 µM; in assay [8], 0.24 µM. Further, the TGI was 1.04 µM in assay [1]; 1.37 µM in assay [2]; 0.811 µM in assay [3]; 1.25 µM in assay [4]; 1.09 µM in assay [5]; 1.18 µM in assay [6]. For the same molecule, the values for the TGI in assay [7] and in assay [8] were 0.523 µM and 0.811 µM, respectively.
Consider `C[C@H](N)C(=O)N1C[C@H](CCCB(O)O)[C@](N)(C(=O)O)C1`, for which the GI50 in assay [1], in assay [2], in assay [3], in assay [4], in assay [6] and in assay [7] was greater than 100 µM each time. In addition, in assay [8], the GI50 is greater than 100 µM. Further, the TGI in assay [1], in assay [2], in assay [3], in assay [4], in assay [6] and in assay [7] was greater than 100 µM each time. This molecule came in with a TGI in assay [8] greater than 100 µM.
`C=C1C(=O)O[C@H]2[C@H]1CC/C(COC(=O)c1ccccc1)=C\CC[C@@]1(C)O[C@@H]21`: the GI50 in assay [2] is 1.06 µM; in assay [3], 1.82 µM; in assay [4], 1.06 µM; in assay [5] it was 2.64 µM; in assay [6], 1.8 µM; in assay [7], 0.375 µM. Besides, the GI50 in assay [8] was 1.2 µM. The TGI was determined as 2.29 µM in assay [2]; 4.16 µM in assay [3]; 2.79 µM in assay [4]; 9.87 µM in assay [5]; 4.34 µM in assay [6]; 2.44 µM in assay [7]. In assay [8], the TGI is 2.49 µM.
For `CCSc1nnc(-c2ccc3ccccc3c2O)n1-c1ccc(Cl)cc1`, the GI50 in assay [1] was 6.85 µM; in assay [2], 13.1 µM; in assay [3] it was greater than 100 µM; in assay [4], 5.15 µM; in assay [5], 5.71 µM; in assay [6], 50.1 µM. In addition, the values for the GI50 in assay [7] and in assay [8] were 4.83 µM and 3.31 µM, respectively. Also, the TGI in assay [1], in assay [2], in assay [3], in assay [4], in assay [5] and in assay [6] was greater than 100 µM throughout. In addition, the TGI in assay [7] and in assay [8] was greater than 100 µM in each case.
As for `CC(C)Nc1ncc2cc(Oc3ccc(F)cc3F)c(=O)n(C)c2n1`, the GI50 in assay [1], in assay [2], in assay [3], in assay [4], in assay [5] and in assay [6] was greater than 25 µM throughout. For the same molecule, the GI50 was greater than 25 µM in assay [7] and 5.17 µM in assay [8]. Moreover, the TGI in assay [1], in assay [2], in assay [3], in assay [4], in assay [5] and in assay [6] was greater than 25 µM throughout. Further, the TGI in assay [7] is greater than 25 µM; in assay [8] it was greater than 13.4 µM.
As to `O=C1CS/C(=N\S(=O)(=O)c2ccc(N3N=C4c5ccccc5CC4C3c3ccc(Cl)cc3)cc2)N1c1ccccc1` (centres undefined), the GI50 is 35.8 µM in assay [1]; 33.9 µM in assay [2]; 36.7 µM in assay [4]; 22.6 µM in assay [6]; 26.4 µM in assay [7]; 29.1 µM in assay [8]. Further, the TGI in assay [1] was greater than 100 µM; in assay [2], greater than 100 µM; in assay [4], greater than 100 µM; in assay [6], 58.6 µM; in assay [7], 88.7 µM; in assay [8], greater than 100 µM.
For the molecule `COc1ccc(/C=C/NC=O)cc1`, the TGI in assay [2], in assay [3], in assay [4], in assay [5], in assay [6] and in assay [7] was greater than 100 µM each time. Further, in assay [8], the TGI was greater than 100 µM.
As to `Clc1ccc(Nc2ccnc(NCCCNc3ccnc4cc(Cl)ccc34)n2)cc1`, the GI50 in assay [1] is 1.43 µM; in assay [2] it was 1.86 µM; in assay [3] it was 1.79 µM; in assay [4], 1.95 µM; in assay [6], 1.58 µM; in assay [8] it was 1.68 µM. Also, the TGI in assay [1] was determined as 2.83 µM; in assay [2] it was 3.35 µM; in assay [3], 3.53 µM; in assay [4], 3.68 µM; in assay [6] it was 3.13 µM; in assay [8], 3.31 µM.
